# Values quoted from earlier work in paper PMC3073735 (Chemistry & biology, 2011).
# Where no end group is shown, it is not given here.
# System: ferroportin
# Settings: ref Nemeth, et al., 2006
substance,measurement,value
"M21Y: synthetic hepcidin mutant from the literature (DTHFPICIFCCGCCHRSKCGYCCKT-OH; disulfide (positions not given here); ends not checked; UniProt P81172 60-84, looked up, variant M21Y)",activity compared with native hepcidin,comparable activity to native hepcidin
